This note sets out measurements from patent US20030050306A1, “Novel heteroaryl derivatives, their preparation and use” (H. Lundbeck A/S, priority 1999, published 2003).

Assay [1] has as its target T1, human cloned dopamine D4.2 receptors (Homo sapiens, UniProt P21917, DEL265-296).
T1 construct: expressed in transfected cells; host or cells: CHO cells
T1 sequence (P21917 with tags, fused parts or gaps DEL265-296): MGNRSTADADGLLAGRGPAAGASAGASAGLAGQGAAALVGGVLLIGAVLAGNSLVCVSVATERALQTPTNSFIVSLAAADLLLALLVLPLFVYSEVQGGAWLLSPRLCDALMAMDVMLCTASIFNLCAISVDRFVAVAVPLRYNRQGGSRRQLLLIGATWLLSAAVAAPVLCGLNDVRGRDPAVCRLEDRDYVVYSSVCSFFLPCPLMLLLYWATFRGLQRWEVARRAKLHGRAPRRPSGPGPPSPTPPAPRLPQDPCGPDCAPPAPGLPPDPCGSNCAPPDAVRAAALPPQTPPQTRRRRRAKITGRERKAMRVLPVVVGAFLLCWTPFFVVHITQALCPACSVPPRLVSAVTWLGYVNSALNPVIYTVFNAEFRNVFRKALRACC
The experiment in a line: Inhibition of the binding of 3H-YM-09151-2 to human dopamine D4 receptors. The settings on record: human cloned dopamine D4.2 receptors in CHO-cells; for Inhibition of 3H-YM-09151-2 binding % inhibition at 50 nM / inhibition at 0.05 µM: at 50 nM. How it is done: The compounds of the invention have also been tested for their affinity to dopamine D4 receptors in the following test.
Inhibition of the Binding of ^3H-YM-09151-2 to Human Dopamine D4 Receptors
By this method the inhibition by drugs of the binding of [^3H]YM-09151-2 (0.06 nM) to membranes of human cloned dopamine D4.2 receptors expressed in CHO-cells is determined in vitro. Method modified from NEN Life Science Products, Inc., technical data certificate PC2533-10/96.

For assay [2], the target named is T2, cloned human 5-HT1A receptors (Homo sapiens, UniProt P08908).
T2 construct: expressed in transfected cells; host or cells: HeLa cells (HA7)
T2 sequence (P08908 1-422): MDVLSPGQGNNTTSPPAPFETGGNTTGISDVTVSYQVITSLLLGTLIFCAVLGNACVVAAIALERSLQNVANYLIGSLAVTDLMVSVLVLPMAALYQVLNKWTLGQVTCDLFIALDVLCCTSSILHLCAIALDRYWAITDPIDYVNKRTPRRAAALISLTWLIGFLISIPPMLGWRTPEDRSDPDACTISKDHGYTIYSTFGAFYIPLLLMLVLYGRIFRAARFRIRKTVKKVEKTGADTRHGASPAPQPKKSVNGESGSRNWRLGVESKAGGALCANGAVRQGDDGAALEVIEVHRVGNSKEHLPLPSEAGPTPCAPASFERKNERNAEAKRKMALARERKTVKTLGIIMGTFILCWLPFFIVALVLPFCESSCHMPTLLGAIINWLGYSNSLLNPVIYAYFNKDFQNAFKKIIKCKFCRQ
The experiment in a line: Inhibition of 3H-5-CT binding to human 5-HT1A receptors. Particulars: cloned human 5-HT1A receptors in HeLa cells (HA7); for Inhibition of 3H-5-CT Binding % inhibition at 100 nM / inhibition at 0.1 µM: at 100 nM. How it is done: The affinity of the compounds of the invention to 5-HT1A receptors was determined by measuring the inhibition of binding of a radioactive ligand at 5-HT1A receptors as described in the following test:
Inhibition of ^3H-5-CT Binding to Human 5-HT1A Receptors
By this method the inhibition by drugs of the binding of the 5-HT1A agonist ^3H-5-carboxamido tryptamine (3H-5-CT) to cloned human 5-HT1A receptors stably expressed in transfected HeLa cells (HA7) (Fargin, A. et al, J. Biol. Chem., 1989, 264, 14848) is determined in vitro. The assay was performed as a modification of the method described by Harrington, M. A. et at, J. Pharmacol. Exp. Ther., 1994, 268, 1098. Human 5-HT1A receptors (40 μg of cell homogenate) were incubated for 15 minutes at 37° C. in 50 mM Tris buffer at pH 7.7 in the presence of ^3H-5-CT. Non-specific binding was determined by including 10 μM of metergoline. The reaction was terminated by rapid filtration through Unifilter GF/B filters on a Tomtec Cell Harvester. Filters were counted in a Packard Top Counter.

In general, IC50 refers to the concentration that inhibits the measured activity by half. Broadly, the inhibition is the change of the read-out against control, counted positive when it falls.

For `Clc1cccc(Cl)c1OCCCN1CCN(c2cccc3c2OCCO3)CC1` [Compound 1b, 1-[3-(2,6-Dichloro-phenoxy)-propyl]-4-(2,3-dihydro-benzo[1,4]dioxin-5-yl)-piperazine], the figures for the IC50 in assay [1] and in assay [2] were 5.9 nM and 1.1 nM, respectively.

For `Clc1ccc(SCCN2CCN(c3cccc4c3OCCO4)CC2)c(Cl)c1` [Compound 7ap, 1-[2-(2,4-Dichloro-phenylsulfanyl)-ethyl]-4-(2,3-dihydro-henzo[1,4]dioxin-5-yl)-piperazine], the “Inhibition of 3H-YM-09151-2 binding % inhibition at 50 nM” value in assay [1] is 78%. The “Inhibition of 3H-5-CT Binding % inhibition at 100 nM” value in assay [2] was determined as 91%.

Take `N#Cc1cccc(OCCCCN2CCN(c3cccc4c3OCCO4)CC2)c1` [Compound 7bh, 3-{4-[4-(2,3-Dihydro-benzo[1,4]dioxin-5-yl)-piperazin-1-yl]-butoxy}-benzonitrile]: in assay [1], the inhibition at 0.05 µM came out at 84%. Besides, in assay [2], the inhibition at 0.1 µM is 95%.

For the compound `CCc1ccccc1SCCCN1CCN(c2cccc3c2OCCO3)CC1` [Compound 7ax, 1-(2,3-Dihydro-benzo[1,4]dioxin-5-yl)-4-[3-(2-ethyl-phenylsulfanyl)-propyl]-piperazine], in assay [1], the inhibition at 0.05 µM was 100%. Besides, the IC50 in assay [2] worked out at 9.2 nM.

Consider `Cc1ccc(SCCCN2CCN(c3cccc4c3OCCO4)CC2)c(C)c1` [Compound 7aj, 1-(2,3-Dihydro-benzo[1,4]dioxin-5-yl)-4-[3-(2,4-dimethyl-phenylsulfanyl)-propyl]-piperazine], for which the inhibition at 0.05 µM in assay [1] is 84%. The inhibition at 0.1 µM in assay [2] is 99%.

For `Fc1cc(Br)cc(F)c1OCCCCN1CCN(c2cccc3c2OCCO3)CC1` [Compound 5bz, 1-[4-(4-Bromo-2,6-difluoro-phenoxy)-butyl]-4-(2,3-dihydro-benzo[1,4]dioxin-5-yl)-piperazine], the figures for the IC50 in assay [1] and in assay [2] were 10 nM and 5 nM, respectively.

On to `COc1cc(F)ccc1OCCCN1CCN(c2cccc3c2OCCO3)CC1` [Compound 1d, 1-(2,3-Dihydro-benzo[1,4]dioxin-5-yl)-4-[3-(4-fluoro-2-methoxy-phenoxy)-propyl]-piperazine], for which the values for the IC50 in assay [1] and in assay [2] were 3 nM and 5.3 nM, respectively.

With `N#Cc1ccc(N2CCN(CCCOc3ccc(F)cc3Cl)CC2)c2c1OCCO2` [Compound 5ck, 8-{4-[3-(2-chloro-4-fluorophenoxy)-propyl]-piperazin-1-yl}-2,3-dihydro-benzo[1,4]dioxine-5-carbonitrile], the inhibition at 0.05 µM in assay [1] was 77%. Further, the IC50 in assay [2] amounted to 180 nM.

For the compound `Clc1ccccc1SCCN1CCN(c2cccc3c2OCCO3)CC1` [Compound 7av, 1-[2-(2-Chloro-phenylsulfanyl)-ethyl]-4-(2,3-dihydro-benzo[1,4]dioxin-5-yl)-piperazine], the inhibition at 0.05 µM in assay [1] is 75%. In assay [2], the inhibition at 0.1 µM was determined as 90%.

Regarding `Fc1ccc(OCCCN2CCN(c3cccc4ccsc34)CC2)c(F)c1` [Compound 5ci, 1-Benzo[b]thiophen-7-yl-4-[3-(2,4-difluoro-phenoxy)-propyl]-piperazine], the IC50 was 2 nM in assay [1] and 3.5 nM in assay [2].

As for `Fc1ccc(OCCCN2CCN(c3cccc4c3OCCO4)CC2)c(Br)c1` [Compound 5aa, 1-[3-(2-Bromo-4-fluoro-phenoxy)-propyl]-4-(2,3-dihydro-benzo[1,4]dioxin-5-yl)-piperazine], the figures for the concentration for half-maximal inhibition (IC50) in assay [1] and in assay [2] were 0.53 nM and 4.9 nM, respectively.

For `Brc1cccc(SCCCN2CCN(c3cccc4c3OCCO4)CC2)c1` [Compound 7bl, 1-(2,3-Dihydro-benzo[1,4]dioxin-5-yl)-4-[3-(3-bromo-phenylsulfanyl)-propyl]-piperazine], the inhibition at 0.05 µM in assay [1] came to 102%. Further, the inhibition at 0.1 µM in assay [2] turned out to be 95%.

With `FC(F)(F)Oc1ccc(SCCCN2CCN(c3cccc4c3OCCO4)CC2)cc1` [Compound 7bj, 1-(2,3-Dihydro-benzo[1,4]dioxin-5-yl)-4-[3-(4-trifluoromethoxy-phenylsulfanyl)-propyl]-piperazine], the inhibition at 0.05 µM in assay [1] amounted to 92%. Also, the inhibition at 0.1 µM in assay [2] turned out to be 106%.

As to `Cc1cc(F)ccc1OCCCN1CCN(c2cccc3c2OCCO3)CC1` [Compound 1e, 1-(2,3-Dihydro-benzo[1,4]dioxin-5-yl)-4-[3-(4-fluoro-2-methyl-phenoxy)-propyl]-piperazine], the IC50 stood at 1.3 nM in assay [1] and 4.5 nM in assay [2].

Consider `N#Cc1ccc(N2CCN(CCCOc3ccc(F)cc3Br)CC2)c2c1OCCO2` [Compound 6b, 8-{4-[3-(2-Bromo-4-fluoro-phenoxy)-propyl]-piperazin-1-yl}-2,3-dihydro-benzo[1,4]dioxine-5-carbonitrile], for which the IC50 in assay [1] is 10 nM; in assay [2], 230 nM.

As for `Clc1ccccc1OCCCN1CCN(c2cccc3c2OCCO3)CC1` [Compound 1a, 1-[3-(2-Chloro-phenoxy)-propyl]-4-(2,3-dihydro-benzo[1,4]dioxin-5-yl)-piperazine], the IC50 in assay [1] was 1.1 nM; in assay [2], 10 nM.

As to `Clc1ccc(Cl)c(SCCN2CCN(c3cccc4c3OCCO4)CC2)c1` [Compound 7at, 1-[2-(2,5-Dichloro-phenylsulfanyl)-ethyl]-4-(2,3-dihydro-henzo[1,4]dioxin-5-yl)-piperazine], the “Inhibition of 3H-YM-09151-2 binding % inhibition at 50 nM” value in assay [1] stood at 92%. Moreover, the “Inhibition of 3H-5-CT Binding % inhibition at 100 nM” value in assay [2] was determined as 88%.

For the compound `Fc1ccc(OCCCN2CCN(c3cccc4c3OCCO4)CC2)c(F)c1` [Compound 5cf, 1-[3-(2,4-Difluoro-phenoxy)-propyl]-4-(2,3-dihydro-benzo[1,4]dioxin-5-yl)-piperazine], the IC50 came to 1.4 nM in assay [1] and 4.9 nM in assay [2].

Consider `Clc1ccc(OCCCN2CCN(c3cccc4c3OCCO4)CC2)cc1` [Compound 2a, 1-[3-(4-Chloro-phenoxy)-propyl]-4-(2,3-dihydro-benzo[1,4]dioxin-5-yl)-piperazine], for which the figures for the IC50 in assay [1] and in assay [2] were 4 nM and 4.4 nM, respectively.

Turning to “1-[2-(Bromo-trifluoromethyl-phenylsulfanyl)-ethyl]-4-(2,3-dihydro-benzo[1,4]dioxin-5-yl)-piperazine [Compound 3c]”, the IC50 in assay [1] is 35 nM; in assay [2], 11 nM.

For `Fc1ccccc1OCCCN1CCN(c2cccc3c2OCCO3)CC1` [Compound 2c, 1-(2,3-Dihydro-benzo[1,4]dioxin-5-yl)-4-[3-(2-fluoro-phenoxy)-propyl]-piperazine], the IC50 in assay [1] is 1.2 nM; in assay [2] it was 4 nM.

With `Clc1ccc(SCCCCN2CCN(c3cccc4c3OCCO4)CC2)c(Cl)c1` [Compound 7ar, 1-[4-(2,4-Dichloro-phenylsulfanyl)-butyl]-4-(2,3-dihydro-benzo[1,4]dioxin-5-yl)-piperazine], the inhibition at 0.05 µM in assay [1] was 99%. The compound further returned an IC50 in assay [2] of 3.8 nM.

For the compound `CC1(C)Cc2cc(Cl)cc(N3CCN(CCCOc4c(Cl)cc(F)cc4Cl)CC3)c2O1` [Compound 5bk, 1-(5-Chloro-2,2-dimethyl-2,3-dihydro-benzofuran-7-yl)-4-[3-(2,6-dichloro-4-fluoro-phenoxy)-propyl]-piperazine], the 50% inhibitory concentration (IC50) in assay [1] came to 11 nM; in assay [2], 22 nM.

As for `Cc1ccccc1SCCN1CCN(c2cccc3c2OCCO3)CC1` [Compound 7bo, 1-(2,3-Dihydro-benzo[1,4]dioxin-5-yl)-4-(2-o-tolylsulfanyl-ethyl)-piperazine], in assay [1], the inhibition at 0.05 µM stood at 102%. Besides, in assay [2], the inhibition at 0.1 µM worked out at 91%.
